In US12180197B2, “GLP-1R modulating compounds” (Gilead Sciences, Inc., priority 2021, dated 2024) one finds EC50 data, which are given here for three compounds.

In the test the target is GLP-1R (Homo sapiens, UniProt P43220). Put plainly: GLP-1R Activation - cAMP Assay 2. Format: cell-based. The following applies: cAMP increase in CHO cells stably expressing GLP-1R; pre-spotted agonists; assay buffer or 100% Human Plasma (not given); 30 minutes. The procedure: GLP-1R Activation—cAMP Assay 2
Chain of GLP-1R (P43220 24-463): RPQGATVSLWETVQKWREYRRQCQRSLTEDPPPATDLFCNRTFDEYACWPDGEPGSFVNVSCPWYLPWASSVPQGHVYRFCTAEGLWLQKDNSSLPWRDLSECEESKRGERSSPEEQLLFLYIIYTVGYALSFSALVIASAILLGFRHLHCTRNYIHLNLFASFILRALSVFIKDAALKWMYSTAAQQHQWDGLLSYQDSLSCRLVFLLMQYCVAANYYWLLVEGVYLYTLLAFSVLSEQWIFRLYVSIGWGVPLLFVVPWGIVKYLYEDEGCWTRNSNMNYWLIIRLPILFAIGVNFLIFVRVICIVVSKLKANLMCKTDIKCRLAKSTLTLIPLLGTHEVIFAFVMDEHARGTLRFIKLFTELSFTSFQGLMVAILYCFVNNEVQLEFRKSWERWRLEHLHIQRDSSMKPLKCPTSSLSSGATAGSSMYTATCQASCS
GLP-1R activation by small molecule agonists is quantified by measuring cAMP increase in CHO cells stably expressing GLP-1R (MultiSpan product #C1267-1a). 50 nL of agonists are pre-spotted in a 10 point dose response onto 384-well plate (Corning product #CL3826) using the Labcyte Echo System. The cells are harvested and plated in assay buffer (HBSS (Corning product #21-023-CV) with 20 mM Hepes (Gibco product #15630-080) and 0.1% BSA (Rockland Immunochemicals product #BSA-1000)) or 100% Human Plasma (Innovative Research product #50-643-396) at 1,000 cells/well, 10 μL/well, onto the pre-spotted plates. The cells are then incubated for 30 minutes at 37° C., 5% CO2. cAMP concentration increase is then detected using Cisbio's cAMP Gs Dynamic Kit (product #62AM4PEC) according to the manufacturer's protocol. The response is plotted against the log of the agonist concentration and fitted to a sigmoidal equation to determine the EC50.
`O=C(O)c1ccc2nc(CN3CCC(c4cccc(OCc5ccc(-n6cc(C7CC7)nn6)cc5F)n4)CC3)n(C[C@@H]3CCO3)c2c1` [Example 40, 2-[[4-[6-[[4-(4-cyclopropyltriazol-1-yl)-2-fluoro-phenyl]methoxy]-2-pyridyl]-1-piperidyl]methyl]-3-[[(2S)-oxetan-2-yl]methyl]benzimidazole-5-carboxylic acid]: the EC50 (usually the concentration that produces a half-maximal response) is 1.3 nM. Under `COCCn1c(CN2CCC(c3cccc(OCc4ccc(-c5cn(C)nn5)cc4F)n3)CC2)nc2ccc(C(=O)O)cc21` [Example 17, 2-((4-(6-((2-fluoro-4-(1-methyl-1H-1,2,3-triazol-4-yl)benzyl)oxy)pyridin-2-yl)piperidin-1-yl)methyl)-1-(2-methoxyethyl)-1H-benzo[d]imidazole-6-carboxylic acid] stands 24.6 nM; under `COCCn1c(CN2CCC(c3cccc(OCc4ccc(-c5cnn(C)c5)cc4F)n3)CC2)nc2ccc(C(=O)O)cc21` [Example 21, 2-((4-(6-((2-fluoro-4-(1-methyl-1H-pyrazol-4-yl)benzyl)oxy)pyridin-2-yl)piperidin-1-yl)methyl)-1-(2-methoxyethyl)-1H-benzo[d]imidazole-6-carboxylic acid], 7.2 nM.
